What was measured:
Assay in all cases: relative IC50 (inflection point of fitted viability curve, relative to fitted max inhibition); higher = less sensitive
Conditions in all cases: 72 h
[1] = system: DERL-7 (IL-2 2.5 ng/mL)
Procedure: (§1)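 Drug sensitivity and resistance testing: 5 concentrations over a 10,000-fold range, 72 h at 37 °C, viability by CellTiter-Glo normalised to DMSO and benzethonium chloride controls. IC50 is the inflection point of a logistic fit (min fixed at 0, max fitted), so it is relative to the fitted maximal inhibition. Kept only where fitted max inhibition is at least 50%.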

[2] = system: IMC-1 (IL-2 20 ng/mL)
Procedure: as §1

[3] = system: KAI3 (IL-2 2.5 ng/mL)
Procedure: as §1

[4] = system: KHYG-1 (IL-2 2.5 ng/mL)
Procedure: as §1

[5] = system: NK-92 (IL-2 2.5 ng/mL)
Procedure: as §1

[6] = system: NK-YS (IL-2 2.5 ng/mL)
Procedure: as §1

[7] = system: NKL (IL-2 2.5 ng/mL)
Procedure: as §1

[8] = system: SNK-6 (IL-2 2.5 ng/mL)
Procedure: as §1

[9] = system: YT (IL-2 2.5 ng/mL)
Procedure: as §1

[10] = system: normal primary NK cells, pool 1 (3 donors) (IL-2 2.5 ng/mL)
Procedure: as §1

[11] = system: normal primary NK cells, pool 1 (3 donors), resting (IL-2 0 ng/mL)
Procedure: as §1

[12] = system: normal primary NK cells, pool 2 (3 donors) (IL-2 2.5 ng/mL)
Procedure: as §1

[13] = system: normal primary NK cells, pool 3 (3 donors) (IL-2 2.5 ng/mL)
Procedure: as §1

| Compound | relative IC50 [1] [nM] | relative IC50 [2] [nM] | relative IC50 [3] [nM] | relative IC50 [4] [nM] | relative IC50 [5] [nM] | relative IC50 [6] [nM] | relative IC50 [7] [nM] | relative IC50 [8] [nM] | relative IC50 [9] [nM] | relative IC50 [10] [nM] | relative IC50 [11] [nM] | relative IC50 [12] [nM] | relative IC50 [13] [nM] |
| --- | --- | --- | --- | --- | --- | --- | --- | --- | --- | --- | --- | --- | --- |
| CC(=O)NCC(=O)N1[C@@H]2CC[C@H]1c1ccc(Nc3ncc(C(F)(F)F)c(NC4CCC4)n3)cc12 | 54.3 | 91.9 | 95 | 40.8 | 117 | 111 | 101 | 20 | 439 | 975 | 4400 | 766 | 1310 |
| COC(=O)C[C@](O)(CCCC(C)(C)O)C(=O)O[C@@H]1C(OC)=C[C@]23CCCN2CCc2cc4c(cc2[C@H]13)OCO4 [Omacetaxine] | 7.54 | 33.6 | 6.32 | 35.2 | 25.7 | 30.7 | 29.8 | 6.73 | 17.5 | 6.62 | 1.15 | 5.02 | 10.6 |
| O=C(/C=C\n1cnc(-c2cc(C(F)(F)F)cc(C(F)(F)F)c2)n1)NNc1cnccn1 [Selinexor] | 65.1 | 497 | 93.3 | 152 | 168 | 166 | 106 | 48.3 | 64.1 | 76.7 | 24.2 | 52.4 | 80.8 |
| COc1cc([C@@H]2c3cc4c(cc3[C@@H](O[C@@H]3O[C@@H]5CO[C@@H](c6cccs6)O[C@H]5[C@H](O)[C@H]3O)[C@H]3COC(=O)[C@H]23)OCO4)cc(OC)c1O [Teniposide] | 15.5 | 20.3 | 18.8 | 27.8 | 84.1 | 13.3 | 10 | 32 | 122 | 534 | 139 | 965 | 1250 |
| CCN(CC)C(=S)SSC(=S)N(CC)CC [Disulfiram] | 194 | 1590 | 16200 | 2300 | 30100 | 987 | 256 | 40300 | 25700 | 323 | 309 | 224 | 320 |
| CN(C)c1cc2c(cc1Sc1nc3c(N)nccc3n1CCNCC(C)(C)C)OCO2 [CUDC-305] | 164 | 301 | 114 | 243 | 204 | 158 | 293 | 328 | 302 | 232 | 199 | 208 | 308 |
| CN1CCN(c2cc(C(=O)Nc3ccc4c(c3)-c3c(c(C(N)=O)nn3-c3ccc(F)cc3)CC4)c(Cl)cn2)CC1 [PHA 408] | 1350 | 2970 | 940 | 2990 | 2090 | 2440 | 1620 | 1620 | 1920 | 2590 | 2140 | 2100 | 2780 |
| COc1cccc2c1C(=O)c1c(O)c3c(c(O)c1C2=O)C[C@@](O)(C(C)=O)C[C@@H]3O[C@H]1C[C@H](N)[C@H](O)[C@H](C)O1 [Daunorubicin] | 21.7 | 19.2 | 54.5 | 38.2 | 45.7 | 31.1 | 3.74 | 34.7 | 40.8 | 21.6 | 15.7 | 20.8 | 42 |
| C=CC(=O)Nc1cc2c(Nc3ccc(F)c(Cl)c3)ncnc2cc1OCCCN1CCOCC1 [Canertinib] | 1080 | 3700 | 1100 | 2670 | 1180 | 1990 | 1290 | 2980 | 1970 | 402 | 333 | 710 | 1290 |
| COc1cc(O)c2c(c1)/C=C/C[C@H](O)[C@H](O)C(=O)/C=C\C[C@H](C)OC2=O [(5Z)-7-Oxozeaenol] | 572 | – | 797 | 480 | 1510 | 1140 | 156 | 1560 | 1060 | 782 | 688 | 1600 | 2050 |
| COc1cc2c(NC3CCN(C(C)C)CC3)nc(C3CCCCC3)nc2cc1OCCCN1CCCC1 [UNC0638] | 2120 | 2780 | 528 | 2540 | 1660 | 2570 | 2290 | 1600 | 3050 | 3450 | 2290 | 3070 | 3360 |
| CCOC(=O)CCNc1cc(N2CCc3ccccc3CC2)nc(-c2ccccn2)n1 [GSK-J4] | 2480 | 1230 | 3340 | 1740 | 837 | 3320 | 3370 | 3020 | 2670 | 2100 | 1280 | 3280 | 2110 |
| C[C@@H]1C=C2C(=O)O[C@@H]3CC[C@H](C1)[C@]23O [Galiellalactone] | 3110 | – | 3340 | 5240 | 5040 | 3660 | – | 3970 | 8550 | 4800 | 3720 | 5560 | 7360 |

Source: the supplement of paper PMC5908809
